Literature values as cited in patent US20010050137A1, “Anti-microbial shoe linings, sock liners, and socks and process for manufacture of same” (priority 1995, published 2001).
Read-outs that look alike come from different tables or passages of the source.

Experiments:
most algae = details: in general
Streptococcus faecalis = details: ATCC 19433; approx. 10^6 organisms/ml; DMSO cosolvent
Chaetomium globosum = details: ATCC 6205; approx. 10^5 colony-forming units/ml spores; DMSO cosolvent
Pseudomonas aeruginosa = details: ATCC 9721; approx. 10^6 organisms/ml; DMSO cosolvent
Staphylococcus aureus = details: ATCC 6538; approx. 10^6 organisms/ml; DMSO cosolvent
Synechocystis minima = details: DMSO cosolvent
Fusarium sp. = details: approx. 10^5 colony-forming units/ml spores; DMSO cosolvent
Penicillium pinophilum = details: ATCC 9644; approx. 10^5 colony-forming units/ml spores; DMSO cosolvent
Aspergillus niger = details: ATCC 9542; approx. 10^5 colony-forming units/ml spores; DMSO cosolvent
most bacteria = details: in general
Pityrosporum Ovale = details: DMSO cosolvent
Gliocladium virens = details: ATCC 9645; approx. 10^5 colony-forming units/ml spores; DMSO cosolvent
Anacystis montana = details: DMSO cosolvent
Trentopholia odorata = details: DMSO cosolvent
Candida Albicans = details: ATCC 11651; DMSO cosolvent
[1] = tested on: Streptoverticillium reticulum; details: ATCC 25607; DMSO cosolvent
Sctonema hofmaannii = details: DMSO cosolvent
Chloroccum tetrasporum = details: DMSO cosolvent
[2] = commercial product, typical value
[3] = tested on: algae, mold, mildew and bacteria including E-Coli and Salmonella
[4] = for Solubility: 25° C.
Klebsiella pheumoniae = details: ATCC 4352; approx. 10^6 organisms/ml; DMSO cosolvent
Escherichia coli = details: ATCC 9637; approx. 10^6 organisms/ml; DMSO cosolvent
Aureobasidium pullulans = details: ATCC 9348; approx. 10^5 colony-forming units/ml spores; DMSO cosolvent
[5] = tested on: most fungi (molds and yeasts); details: in general

c1cc[n+]2c(c1)[S][Zn-2]1([O]2)[O][n+]2ccccc2[S]1 [Zinc Omadine®, bis[1-hydroxy-2(1H)-pyridinethionato-0,S]-(T-4) zinc]
MIC in vitro (most algae): less than 1 ppm
Minimum Inhibitory Concentrations (Streptococcus faecalis): 16 Micrograms/ml (ppm)
Minimum Inhibitory Concentrations (Chaetomium globosum): <2 Micrograms/ml (ppm)
Minimum Inhibitory Concentrations (Pseudomonas aeruginosa): 512 Micrograms/ml (ppm)
Minimum Inhibitory Concentrations (Staphylococcus aureus): 4 Micrograms/ml (ppm)
Minimum Inhibitory Concentrations (Synechocystis minima): <0.06 Micrograms/ml (ppm)
Minimum Inhibitory Concentrations (Fusarium sp.): 32 Micrograms/ml (ppm)
Minimum Inhibitory Concentrations (Penicillium pinophilum): <2 Micrograms/ml (ppm)
Minimum Inhibitory Concentrations (Aspergillus niger): 8 Micrograms/ml (ppm)
MIC in vitro (most bacteria): less than 50 ppm
Minimum Inhibitory Concentrations (Pityrosporum Ovale): 4 Micrograms/ml (ppm)
Minimum Inhibitory Concentrations (Gliocladium virens): 64 Micrograms/ml (ppm)
Minimum Inhibitory Concentrations (Anacystis montana): <0.06 Micrograms/ml (ppm)
Minimum Inhibitory Concentrations (Trentopholia odorata): <0.06 Micrograms/ml (ppm)
Minimum Inhibitory Concentrations (Candida Albicans): <2 Micrograms/ml (ppm)
Minimum Inhibitory Concentrations [1]: 4 Micrograms/ml (ppm)
Minimum Inhibitory Concentrations (Sctonema hofmaannii): 0.5 Micrograms/ml (ppm)
Minimum Inhibitory Concentrations (Chloroccum tetrasporum): 8 Micrograms/ml (ppm)
Heat Stability: time stable ([2]; at 100° C.): at least 120 hours
decomposition temperature [2]: 240 °C
inhibiting the growth of microorganisms [3]: capable of inhibiting the growth
Solubility ([4]; Castor oil): <0.0001 w/w %
Solubility ([4]; Chloroform): 0.3 w/w %
Solubility ([4]; Diethyleneglycol monoethyl ether): 0.01 w/w %
Solubility ([4]; Dimethylsulfoxide): 4 w/w %
Solubility ([4]; Ethanol, 40A): 0.01 w/w %
Solubility ([4]; Ethyleneglycol monomethyl ether): 0.09 w/w %
Solubility ([4]; Isopropanol): 0.008 w/w %
Solubility ([4]; Isopropyl myristate): <0.0001 w/w %
Solubility ([4]; Isopropyl palmitate): <0.0001 w/w %
Solubility ([4]; Mineral oil, light): <0.0001 w/w %
Solubility ([4]; Olive oil): <0.0003 w/w %
Solubility ([4]; Polyethylene glycol 400): 0.2 w/w %
Solubility ([4]; Propylene glycol): 0.02 w/w %
Solubility ([4]; Water, pH 7, technical grade material, average): 0.0008 w/w %
Solubility in water ([4]; water, 95 percent powder form): insoluble in water
Minimum Inhibitory Concentrations (Klebsiella pheumoniae): 8 Micrograms/ml (ppm)
Minimum Inhibitory Concentrations (Escherichia coli): 8 Micrograms/ml (ppm)
Minimum Inhibitory Concentrations (Aureobasidium pullulans): <2 Micrograms/ml (ppm)
MIC in vitro [5]: less than 5 ppm
